Laboratory results taken from patent US20200339625A1, “NOVEL RADIOMETAL-BINDING COMPOUNDS FOR DIAGNOSIS OR TREATMENT OF PROSTATE SPECIFIC MEMBRANE ANTIGEN-EXPRESSING CANCER” (PROVINCIAL HEALTH SERVICES AUTHORITY, priority 2017, published 2020).

Legend:
[1] = test system: mice bearing LNCaP tumor xenografts; assay: SPECT/CT imaging of 177Lu-labeled compounds; format: in vivo; conditions: for size of LNCaP tumor xenografts over time: injection of about 37 MBq, SPECT/CT
Procedure: (§1) SPECT/CT imaging and biodistribution were performed using NOD-scid IL2Rgammanu^null (NSG) male mice, and the endoradiotherapy study was conducted using NOD.Cg-Rag1^tm1MomII2rg^tm1WjI/SzJ (NRG) male mice. The mice were maintained and the experiments were conducted in according to the guidelines established by the Canadian Council on Animal Care and approved by Animal Ethics Committee of the University of British Columbia. Mice were anesthetized by inhalation with 2% isoflurane in oxygen, and implanted subcutaneously with 1×10^7 LNCaP cells posterior to the left shoulder. Mice were used for studies when the tumor reached 5-8 mm in diameter 5-6 weeks after inoculation.
SPECT/CT imaging experiments were conducted using the MILabs (Utrecht, the Netherlands) U-SPECT-II/CT scanner. Each tumor-bearing mouse was injected with ≠37 MBq of ^177Lu-labeled PSMA-617 or HTK01169 through the tail vein under anesthesia (2% isoflurane in oxygen). The mice were allowed to recover and roam freely in their cage and imaged at 4, 24, 72 and 120 hours after injection. At each time point, the mice were sedated again and positioned in the scanner. A 5-min CT scan was conducted first for anatomical reference with a voltage setting at 60 kV and current at 615 μA followed by a 60-min static emission scan acquired in list mode using an ultra-high resolution multi-pinhole rat-mouse (1 mm pinhole size) collimator. Data were reconstructed using the U-SPECT II software with a 20% window width on three energy windows. The photopeak window was centered at 208 keV, with lower scatter and upper scatter windows centered at 170 and 255 keV, respectively. The images were reconstructed using the ordered subset expectation maximization algorithm (3 iterations, 16 subsets), and a 0.5 mm post-processing Gaussian filter. Images were decay corrected to injection time in PMOD (PMOD Technologies, Switzerland) then converted to DICOM for qualitative visualization in the Inveon Research Workplace software (Siemens Medical Solutions USA, Inc.).

[2] = Radiation dosimetry calculation (OLINDA), 25-g mouse
Procedure: 1.18 Radiation Dosimetry Calculation
Internal dosimetry estimates were calculated using the organ level internal dose assessment (OLINDA) software v.2.0.^37 These estimates were performed for the mouse using the 25 g MOBY phantom,^38 for humans using the NURBS model for the adult male,^39 and for the tumors using the previously reported unit density sphere model.^40 All the phantoms and the sphere model are available in OLINDA and require the input of the total number of decays normalized by injected activity in units of MBq×h/MBq for each of the source organ/tumor.
The biodistribution data (available in the Tables 1 and 2, below) was used to determine the kinetics input values required by OLINDA. First, each of the values was decayed to its corresponding time point (the values on the table are shown at injection time). Then the different time-points of the uptake data (% ID/g) for each organ were fitted to both mono-exponential
functions using in-house software developed in Python. The best fit was selected based on maximizing the coefficient of determination (R2) of the fit and minimizing the residuals. The areas under the curves were analytically calculated based on the parameters obtained from the best fit of each organ and this provided the kinetic input values required by OLINDA.
In the mouse case, the adrenals, blood, fat, muscle, and seminal vesicles are not modeled in the phantom. These organs were grouped together and included in what OLINDA calls the remainder of the body.

[3] = test system: LNCaP tumor-bearing mice; assay: Endoradiotherapy study; format: in vivo; conditions: for Median survival: n=8
Procedure: as §1
For radiotherapy study, tumor-bearing mice were injected with saline (the control group), ^177Lu-PSMA-617 (18.5 MBq) or ^177Lu-HTK01169 (18.5, 9.3, 4.6, or 2.3 MBq) (n=8 per group). Tumor size and body weight were measured twice a week from the date of injection (Day 0) until completion of the study (Day 120). Endpoint criteria were defined as >20% weight loss, tumor volume >1000 mm^3, or active ulceration of the tumor.

[4] = test system: metastatic prostate cancer; conditions: cited from earlier work
[5] = test system: PSMA-expressing PC-3 PIP tumors; conditions: 5 MBq; cited from earlier work
[6] = source organ Large intestine contents
[7] = source organ Remainder of the body
[8] = source organ Urinary bladder contents

For `O=C([O-])CN1CCN(CC(=O)[O-])CCN(CC(=O)NCC2CCC(C(=O)N[C@@H](Cc3ccc4ccccc4c3)C(=O)NCCCC[C@H](NC(=O)N[C@@H](CCC(=O)O)C(=O)O)C(=O)O)CC2)CCN(CC(=O)[O-])CC1.[177Lu+3]` (stereo partly shown) [^177Lu-PSMA-617, reference compound], the excretion pathway ([1]; SPECT/CT images) was “excreted mainly via the renal pathway”, the “size of LNCaP tumor xenografts over time” value [1] was “quick reduction in size” and the Kinetics value ([2]; source organ Brain) was 6.96E−03 MBq-h/MBq. It also gave a Kinetics value ([2]; source organ Cortical bone) of 9.96E−02 MBq-h/MBq, a Kinetics value ([2]; source organ Heart contents) of 4.21E−03 MBq-h/MBq and a Kinetics value ([2]; source organ Kidneys) of 1.13E+00 MBq-h/MBq. The Kinetics value [2, 6] was 1.74E−02 MBq-h/MBq, the Kinetics value ([2]; source organ Liver) was 6.54E−02 MBq-h/MBq and the Kinetics value ([2]; source organ Lungs) was 5.10E−03 MBq-h/MBq. The Kinetics value ([2]; source organ Pancreas) was 5.44E−03 MBq-h/MBq, the Kinetics value [2, 7] was 6.82E−01 MBq-h/MBq and the Kinetics value ([2]; source organ Small intestine) was 5.20E−02 MBq-h/MBq. The Kinetics value ([2]; source organ Spleen) was 1.50E−02 MBq-h/MBq, the Kinetics value ([2]; source organ Stomach contents) was 5.42E−03 MBq-h/MBq and the Kinetics value ([2]; source organ Testes) was 4.96E−03 MBq-h/MBq. The Kinetics value [2, 8] was 1.10E+00 MBq-h/MBq, the “change of tumor size over time” value ([3]; 18.5 MBq) was “shrank initially but grew back later” and the Median survival ([3]; 18.5 MBq injected) was 58 days. For the same compound, the complete response rate ([4]; human, in vivo) was less than 7%, the “patients with progressive disease after treatment” value ([4]; human, in vivo) was “up to 33%” and the side effects ([4]; human, in vivo) was “without severe side effects”. For the same compound, the “patients having >50% reduction in PSA levels” value ([4]; metastatic prostate cancer) was 32-60%, the objective response ([4]; phase 2 Australian study, patients with measurable nodal or visceral disease) was 82% and the Median survival [5] was 32 days.

With `O=C([O-])CN1CCN(CC(=O)[O-])CCN(CC(=O)NCCCC[C@H](NC(=O)[C@H](CCC(=O)O)NC(=O)CCCc2ccc(I)cc2)C(=O)NC[C@H]2CC[C@H](C(=O)N[C@@H](Cc3ccc4ccccc4c3)C(=O)NCCCC[C@H](NC(=O)N[C@@H](CCC(=O)O)C(=O)O)C(=O)O)CC2)CCN(CC(=O)[O-])CC1.[177Lu+3]` [^177Lu-HTK01169] the excretion pathway ([1]; SPECT/CT images) was “excreted mainly via the renal pathway”, the “tumor uptake (qualitative)” value ([1]; SPECT/CT images, compared with 177Lu-PSMA-617) was “Higher and sustained tumor uptake” and the “renal retention (qualitative)” value ([1]; SPECT/CT images, early time points (4 and 24 h), compared with 177Lu-PSMA-617) was “higher renal retention”. The “size of LNCaP tumor xenografts over time” value [1] was “quick reduction in size”, the Kinetics value ([2]; source organ Brain) was 3.21E−02 MBq-h/MBq and the Kinetics value ([2]; source organ Cortical bone) was 5.48E−01 MBq-h/MBq. The Kinetics value ([2]; source organ Heart contents) was 1.66E−01 MBq-h/MBq, the Kinetics value ([2]; source organ Kidneys) was 1.94E+01 MBq-h/MBq and the Kinetics value [2, 6] was 2.25E−01 MBq-h/MBq. The Kinetics value ([2]; source organ Liver) was 1.41E+00 MBq-h/MBq, the Kinetics value ([2]; source organ Lungs) was 1.28E−01 MBq-h/MBq and the Kinetics value ([2]; source organ Pancreas) was 1.30E−01 MBq-h/MBq. It also gave a Kinetics value [2, 7] of 1.73E+01 MBq-h/MBq, a Kinetics value ([2]; source organ Small intestine) of 6.73E−01 MBq-h/MBq and a Kinetics value ([2]; source organ Spleen) of 4.38E−01 MBq-h/MBq. For the same compound, the Kinetics value ([2]; source organ Stomach contents) was 1.54E−02 MBq-h/MBq, the Kinetics value ([2]; source organ Testes) was 1.66E−01 MBq-h/MBq and the Kinetics value [2, 8] was 6.02E−01 MBq-h/MBq. The “change of tumor size over time, dependence on injected radioactivity” value ([3]; 2.3-18.5 MBq) was “higher radioactivity leading to more effective and prolonged tumor growth inhibition”, the Median survival ([3]; 2.3 MBq injected) was 28 days and the Median survival ([3]; 4.6 MBq injected) was 61 days. The Median survival ([3]; 9.3 MBq injected) was 103 days, the “survival until end of study (Day 120)” value ([3]; 18.5 MBq) was “survived until the end of the study” and the Median survival ([3]; 18.5 MBq injected) was greater than 120 days. The “administered activity needed for similar treatment efficacy, relative to 177Lu-PSMA-617” value ([3]; mouse, in vivo) was “only a quarter”.
